# Test results from ChEMBL document CHEMBL4406917, “Approaches for Prevention and Treatment of Neurodegenerative Diseases: ALS and Alzheimer's” (ACS Med Chem Lett, 2019).
# Columns and labels:
# [1] = (§1) Activation of NF-KappaB (unknown origin) expressed in SH-SY5Y cells co-transfected with pNFkappaB-Luc plasmid measured after 24 hrs by Bright-Glo luciferase assay; format: cell-based; conditions: Homo sapiens
# SH-SY5Y = assay: as §1; format: cell-based; conditions: Homo sapiens
# [2] = Toxicity in SOD1-G93A mutant-induced ALS C57BL/6 mouse model assessed as effect on animal survival at 50 mg/kg, ip; format: organism-based; conditions: in vivo
# [3] = Drug uptake in brain of SOD1-G93A mutant-induced ALS C57BL/6 mouse model at 50 mg/kg, ip measured within 30 mins; format: ADME, organism-based; conditions: in vivo, 0.5 h
# [4] = Drug uptake in plasma of SOD1-G93A mutant-induced ALS C57BL/6 mouse model at 50 mg/kg, ip measured within 30 mins; format: ADME, organism-based; conditions: in vivo, 0.5 h
# [5] = Kinetic solubility of compound at pH 7.4 by shake flask method; format: physicochemical; conditions: buffer, read-out: Kinetic_solubility
solubility kinetic [5] [µM],Structure (SMILES),EC50 [1] [nM],ECmax (SH-SY5Y) [µM],Activity [2],Drug uptake [3],Drug uptake [4]
,Cc1cccnc1Nc1nc(-c2ccccn2)cs1,210,40,Non-Toxic,Active,Active
,COC(=O)c1ccc(-c2cnc(Nc3c(F)cccc3F)o2)cc1,,42.6,,,
,O=C(/C=C\Nc1ccccc1Br)c1ccc2c(c1)OCO2,500,26,Non-Toxic,Active,Active
56,O=C(O)c1cccc(-c2cnc(Nc3ccccc3F)o2)c1,,23.5,,,
